Laboratory results taken from US20190362816A1, “Systems and Methods for Developing Covalent Inhibitor Libraries for Screening Using Virtual Docking and Experimental Approaches” (Northwestern University, priority 2016, published 2019).

How the values were obtained:
cysteine protease papain [1] = biological target: T1, cysteine protease papain (Carica papaya, UniProt P00784); settings: J Med Chem. 2014, 57(11), 4969-74; cited from earlier work
T1 sequence (P00784 134-345): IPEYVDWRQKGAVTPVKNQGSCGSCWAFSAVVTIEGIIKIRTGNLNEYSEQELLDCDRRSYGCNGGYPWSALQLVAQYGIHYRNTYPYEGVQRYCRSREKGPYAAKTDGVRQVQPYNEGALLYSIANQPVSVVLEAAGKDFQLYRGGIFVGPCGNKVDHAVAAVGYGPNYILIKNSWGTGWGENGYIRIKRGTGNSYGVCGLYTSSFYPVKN

cysteine protease papain [2] = biological target: T1, cysteine protease papain; assay: enzyme assay against cysteine protease papain (kinact/Ki); format: biochemical; settings: covalent fragments of this work; J Med Chem. 2014, 57(11), 4969-74; read-out: Inhibitors of papain in this work, kinact/Ki
Description: In a further embodiment, once the potential covalent inhibitor candidate libraries have been prepared, these candidates can be evaluated by dosing them in a specific assay at a specific concentration versus the receptor to determine the potency of each of the candidates. Depending on the covalent inhibitor, the receptor, and the therapeutic area, the assays will vary. Methods of performing wet chemistry assays are well known. Examples of covalent fragments evaluated in the enzyme assays against cysteine protease papain is shown below (J Med Chem. 2014 Jun. 12; 57(11):4969-74): […]

[3] = biological target: cysteine protease cathepsin L (Homo sapiens, UniProt P07711); assay: cathepsin L assay using commercially available fluorescent substrates; format: biochemical
Description: Experimental validation of identified inhibitors of cysteine protease cathepsin L. Identified covalent inhibitors (including 53) had been synthesized and tested in cathepsin L assays using commercially available fluorescent substrates for cathepsins (Calbiochem).

[4] = biological target: Cathepsin B cysteine protease (Homo sapiens, UniProt P07858); assay: inhibition of related Cathepsin B cysteine protease; format: biochemical; settings: selectivity versus cathepsin L

cysteine protease cathepsin L, sequence (P07711 114-333): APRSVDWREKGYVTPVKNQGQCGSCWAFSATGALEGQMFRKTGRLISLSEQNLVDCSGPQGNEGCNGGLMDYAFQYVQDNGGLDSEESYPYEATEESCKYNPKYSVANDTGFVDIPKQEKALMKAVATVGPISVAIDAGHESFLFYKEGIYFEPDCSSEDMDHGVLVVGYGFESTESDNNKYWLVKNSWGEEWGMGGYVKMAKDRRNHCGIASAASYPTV

Structure (SMILES)	Known inhibitors of papain, kinact/Ki (cysteine protease papain [1]) [M⁻¹ s⁻¹]	kinact/KI (cysteine protease papain [2]) [M⁻¹ s⁻¹]	also measured
COC(=O)/C=C/CNC(=O)[C@@H](CNC(C)=O)Cc1ccccc1	6.575		
COC(=O)/C=C/CNC(=O)c1cc(-c2ccc(C)cc2)on1		1.23	
COC(=O)/C=C/CNC(=O)[C@H](CNC(C)=O)Cc1ccccc1	0.386		
COC(=O)/C=C/CNC(=O)c1sc(-c2ccccc2F)nc1C		0.409	
COC(=O)/C=C/CNC(=O)[C@@H](CNC(C)=O)CC(C)C	1.102		
COC(=O)/C=C/CNC(=O)C1CCN(C(=O)CC(C)C)CC1		0.461	
COC(=O)/C=C/CNC(=O)c1ccc(C2CCCO2)s1 (stereo not shown)		0.037	
CC(Oc1ccc(Br)cc1Br)C(=O)NC/C=C/S(C)(=O)=O (racemic) [Compound 53]			kinact/KI ([3]; detailed kinetic analysis): 4.1 M⁻¹ s⁻¹; Ki ([3]; fluorescent substrates (Calbiochem)): 134 ± 2 µM; inhibition of Cathepsin B [4]: does not inhibit
